Laboratory results from patent US20210254000A1, “PROCESS FOR PRODUCING A T CELL COMPOSITION” (Juno Therapeutics, Inc., priority 2017, published 2021).

Tests used:
caspase 3 = assay: Intracellular caspase 3 in thawed CAR-T cells prepared with inhibitor; format: cell-based, human; settings: thawed CAR-T cells prepared with 1 μM Compound 63 vs DMSO; three donors
Procedure: Separate compositions of CD4+ and CD8+ cells were selected from isolated PBMCs from a leukapheresis sample from the same human donor by immunoaffinity based selection, and the selected cell compositions were cryofrozen. The separate compositions of CD4+ and CD8+ T cells were subsequently thawed and mixed at a ratio of 1:1 of viable CD4+ T cells to viable CD8+ T cells. In this study, the mixed CD4+ and CD8+ cell populations were incubated in the presence of Compound 63, PI103 or no inhibitor (DMSO vehicle control) beginning at the initiation of stimulation. In more detail, the mixed CD4+ and CD8+ T cell composition was stimulated (in the presence or absence of an inhibitor, as indicated) in the presence of paramagnetic polystyrene-coated beads with attached anti-CD3 and anti-CD28 antibodies for between 18 to 30 hours, and were then transduced with a lentiviral vector encoding an anti-CD19 CAR. The CAR contained an scFv antigen-binding domain specific for CD19 (derived from FMC63), a CD28 transmembrane region, a 4-1BB costimulatory signaling region, and a CD3-zeta derived intracellular signaling domain. The cells were then expanded in the presence of cytokines typically for approximately 6-7 days. […]
The cells were assessed by flow cytometry for levels of the cell surface markers and levels of pro-apoptotic marker, intracellular caspase 3.

anti-CD19 CAR-T cells = assay: Serial stimulation assay with irradiated K562-CD19 target cells; format: cell-based, human; settings: four rounds of restimulation with K562-CD19 cells; relative to media only
Procedure: Separate compositions of CD4+ and CD8+ cells were isolated from three human donors, activated and transduced with a viral vector encoding an anti-CD19 CAR substantially as described in Example 2. After transduction, the CD4+ and CD8+ T cells derived from each donor were separately incubated for 8 days in the presence of a mTOR kinase inhibitor to expand T cells substantially as described in Example 2, except in the presence of 200 nM PI-103, 1 μM Compound 63, or with DMSO vehicle or media only controls. CD4+ and CD8+ T cells from each donor were then separately harvested, formulated, and cryofrozen. […] Functional activities of the generated anti-CD19 CAR-T cell compositions were assessed.
The ability of cells to expand ex vivo following repeated stimulations in some aspects can indicate capacity of CAR-T cells to persist (e.g., following initial activation) and/or is indicative of function in vivo (Zhao et al. (2015) Cancer Cell, 28:415-28). […] Every 3-4 days, T cells were harvested, counted, and restimulated with new target cells using the same culture conditions after resetting cell number to initial seeding density for each round. […] The population doublings (FIG. 7A) and area under the curves (AUC) as a function of population doublings over time relative to AUC of cells expanded with media only (FIG. 7B) were determined.

[1] = system: engineered CD8+ and CD4+ T cells; assay: T cell expansion of anti-CD19 CAR-transduced CD4+ and CD8+ T cells incubated with mTOR kinase inhibitor; format: cell-based; settings: human
Procedure: Separate compositions of CD4+ and CD8+ cells were isolated from human leukapheresis samples by immunoaffinity-based enrichment and cryofrozen. The CD4+ and CD8+ cells of the compositions were subsequently thawed and activated by separately culturing the cells under stimulating conditions in the presence of anti-CD3/anti-CD28 magnetic beads and recombinant IL-2, IL-7 and/or IL-15 for approximately 20 hours. Cells were then transduced with a viral vector encoding an anti-CD19 chimeric antigen receptor (CAR). After transduction, the CD4+ and CD8+ cells were separately incubated in the presence of an mTOR kinase inhibitor, either Compound 155, Compound 63, or Compound 246, at various concentrations. For controls, cells were incubated with media only, DMSO vehicle, or with 200 nM PI-103. Incubation was carried out at 37° C. for approximately 8 days post-thaw with one media change, at which point the compounds were re-added to the culture media at the same concentration.
The percent of CD8+ and CD4+ T cells at the end of the process as compared to the amount of cells seeded for culture following the transduction is shown in FIG. 2. The cutoff for selecting a tolerated dose was set at 70% of the mean values of the media and DMSO controls.

CC(C)c1ccccc1-n1c(=O)[nH]c2c(C(N)=O)nc(-c3cccc(O)c3)nc21 [Compound 63, 2-(3-Hydroxyphenyl)-9-(2-isopropylphenyl)-8-oxo-8,9-dihydro-7H-purine-6-carboxamide]
levels of pro-apoptotic marker intracellular caspase 3 (caspase 3): decreased levels | mean AUC of population doublings compared to T cells expanded with PI-103 or DMSO vehicle (anti-CD19 CAR-T cells): larger mean AUC | highest tolerated dose resulting in similar CD8 and CD4 T cell expansion as vehicle control [1]: 1 µM
